Results reported in patent US5545639A, “Method of inhibiting transformed cells” (The United States of America as represented by the …, priority 1994, dated 1996).
Read-outs that look alike come from different tables or passages of the source.

What was measured:
[1] = system: mouse L1210 leukemia cells; experiment: Example 2: growth of mouse L1210 leukemia cells with monohalomethyl phenanthrolines, with/without copper and BCS; assay type: cell-based
Description: The aforementioned monohalomethyl compounds were prepared and characterized as described by Newkome et al., J. Org. Chem., 54, 1766-1769 (1989). The compounds were then added to different cultures of mouse L1210 leukemia cells alone (.smallcircle.), with copper sulfate (.quadrature.), with BCS (.circle-solid.), or with BCS and copper sulfate (.box-solid.). The concentrations of copper and BCS used in these experiments were 10 μM and 100 μM, respectively. Methods used to grow the cells and to administer the test compounds were standard methods, well known to ordinary practitioners, and were similar to those used in Example 1. The growth of the cells as a percent of controls were determined, and the results were plotted in the graph of FIG. 2.

L1210 cells = settings: 2,9-DMP with copper; cited from earlier work
[2] = system: mouse L1210 leukemia cells; experiment: Example 1: growth of mouse L1210 leukemia cells with 2,9-DMP, with/without copper and BCS; assay type: cell-based; settings: for activity at 0.4 µM: at concentrations above about 0.4 μM
Description: The phenanthroline derivative 2,9-DMP was added to a culture of mouse L1210 leukemia cells alone (.smallcircle.), with copper sulfate (.circle-solid.), and with copper sulfate and bathocuproine sulfonate (.quadrature.). The concentrations of copper sulfate and bathocuproine sulfonate used in these experiments were both 25 μM. Methods used to grow the cells and to administer the test compounds were standard methods, well known to ordinary practitioners. The growth of the cells as a percent of control was determined, and the results were plotted in the graph of FIG. 1.

mouse L1210 cells = settings: coordinated copper complex, tissue culture; cited from earlier work
[3] = system: P388 murine lymphocytic leukemia cells; settings: mice inoculated with P388 cells; 2,9-DMP treatment with copper; cited from earlier work
L1210 mouse cells = experiment: Example 3: growth of L1210 mouse cells with bis(halomethyl)phenanthrolines plus copper, with or without BCS; assay type: cell-based; settings: copper 10 μM, BCS 100 μM
Description: Bis(halomethyl)phenanthroline compounds were synthesized according to the method of Newkome et al., J. Org. Chem., 48, 5112-5114 (1983). Such compounds, namely, 2,9-bis(bromomethyl)phenanthroline and 2,9-bis(chloromethyl)phenanthroline, were added in the presence of copper, but with or without BCS (the copper chelator shown in Examples 1 and 2 to reduce inhibitory activity), to the culture media of L1210 mouse cells, using the same methods of Examples 1 and 2. The concentrations of copper and BCS used in these experiments were 10 μM and 100 μM, respectively. The growth of the cells as a percent of control were determined, and the results plotted in the graph of FIG. 3, wherein open squares (.quadrature.) represent the compound plus copper chelate and solid squares (.box-solid.) represent the compound together with both copper and BCS addition to the culture medium.

Cc1ccc2ccc3ccc(CBr)nc3c2n1 [2-BM-9-MP, 2-bromomethyl-9-methyl-1,10-phenanthroline]
inhibitory activity compared with unhalogenated parent compound of Example 1 [1]: less than that of the unhalogenated parent compound

Cc1ccc2ccc3ccc(CCl)nc3c2n1 [2-CM-9-MP, 2-chloromethyl-9-methyl-1,10-phenanthroline]
inhibitory activity compared with unhalogenated parent compound of Example 1 [1]: less than that of the unhalogenated parent compound

Cc1ccc2ccc3ccc(C)nc3c2n1 [2,9-DMP, 2,9-dimethyl-1,10-phenanthroline]
inhibitory response of L1210 tumor in implanted animals (L1210 cells): evident, although weak
activity at 0.4 µM ([2]; Mus musculus, L1210, 2,9-DMP alone, read-out: cell growth as percent of control): < 20%
activity at 0.1 µM ([2]; Mus musculus, L1210, with copper ion (copper sulfate 25 μM), at concentrations above about 0.1 μM, read-out: cell growth as percent of control): < 20%
activity at 0.4 µM ([2]; Mus musculus, L1210, with copper ion (copper sulfate 25 μM), read-out: cell growth as percent of control): < 10%
concentration inhibiting to the same level (20% of control) relative to copper-chelated monobrominated phenanthroline ([2]; copper chelated): less than one-tenth of that concentration
concentration effective for killing of L1210 cells (mouse L1210 cells): nanomolar concentrations
increase in life span [3]: 45%

BrCc1ccc2ccc3ccc(CBr)nc3c2n1 [2,9-bis(bromomethyl)-1,10-phenanthroline]
difference in inhibitory effect, presence vs absence of available copper (BCS) (L1210 mouse cells): about 10%
